Reference: ChEMBL document CHEMBL4828709, “Discovery of 2,4-pyrimidinediamine derivatives as potent dual inhibitors of ALK and HDAC” (Eur J Med Chem, 2021)
Activity calls are given as the source filed them. The calls are words filed in the database; no cut-off is given here.

Assays:
NCI-H2228 = test: cells; format: functional, cell-based; conditions: Homo sapiens, NCI-H2228, 72 h
[1] = Volume of distribution at steady state in Sprague-Dawley rat at 1 mg/kg, iv measured for 12 hrs by LC-MS/MS analysis; format: ADME, organism-based; conditions: in vivo
SH-SY5Y [2] = test: Antimigratory activity against human SH-SY5Y cells assessed as wound closure at 0.4 uM measured after 48 hrs by cell scratch assay (reference value: 15.1%); format: functional
[3] = Half life in Sprague-Dawley rat at 1 mg/kg, iv measured for 12 hrs by LC-MS/MS analysis; format: ADME, organism-based; conditions: in vivo
MDA-MB-231 [4] = test: Induction of apoptosis in human MDA-MB-231 cells assessed as early apoptotic cells at 2 uM measured after 24 hrs by Annexin V-FITC/PI staining based flowcytometry (reference value: 0.64%); format: functional
SH-SY5Y [5] = test: Inhibition of colony formation in human SH-SY5Y cells at 0.1 to 0.4 uM incubated for 3 days followed by incubation in drug-free medium for 12 days by crystal violet staining based assay; format: functional, cell-based; conditions: dose 0.1-0.4 µM, time 3.0 day
MDA-MB-231 [6] = test: Induction of apoptosis in human MDA-MB-231 cells assessed as late apoptotic cells at 1 uM measured after 24 hrs by Annexin V-FITC/PI staining based flowcytometry ( Rvb = 5.28%); format: functional
[7] = Potency index, ratio of crizotinib IC50 to test compound IC50 for human SKNBE2 cells harboring wild type ALK assessed as inhibition of cell proliferation measured after 72 hrs by CCK8 assay; format: functional
[8] = Cmax in Sprague-Dawley rat at 1 mg/kg, iv measured for 12 hrs by LC-MS/MS analysis; format: ADME, organism-based; design: route intravenous, time 12 hrs, dose 1 mg/kg; conditions: in vivo
MDA-MB-231 [9] = test: Cell cycle arrest in human MDA-MB-231 cells assessed as accumulation of cells at G1 phase at 2 uM measured after 24 hrs by PI staining based flowcytometry method (reference value: 55.32%); format: functional
[10] = molecular target: Insulin-like growth factor 1 receptor (Homo sapiens) (UniProt P08069); test: Inhibition of human IGF1R at 1 uM
SH-SY5Y [11] = test: Cell cycle arrest in human SH-SY5Y cells assessed as accumulation of cells at G2 phase at 2 uM measured after 24 hrs by PI staining based Flowcytometry method (reference value: 13.23%); format: functional
MDA-MB-231 [12] = test: Cell cycle arrest in human MDA-MB-231 cells assessed as accumulation of cells at S phase at 4 uM measured after 24 hrs by PI staining based flowcytometry method (reference value: 20.81%); format: functional

Sequence of Insulin-like growth factor 1 receptor (Homo sapiens) (P08069 31-736 limits assumed): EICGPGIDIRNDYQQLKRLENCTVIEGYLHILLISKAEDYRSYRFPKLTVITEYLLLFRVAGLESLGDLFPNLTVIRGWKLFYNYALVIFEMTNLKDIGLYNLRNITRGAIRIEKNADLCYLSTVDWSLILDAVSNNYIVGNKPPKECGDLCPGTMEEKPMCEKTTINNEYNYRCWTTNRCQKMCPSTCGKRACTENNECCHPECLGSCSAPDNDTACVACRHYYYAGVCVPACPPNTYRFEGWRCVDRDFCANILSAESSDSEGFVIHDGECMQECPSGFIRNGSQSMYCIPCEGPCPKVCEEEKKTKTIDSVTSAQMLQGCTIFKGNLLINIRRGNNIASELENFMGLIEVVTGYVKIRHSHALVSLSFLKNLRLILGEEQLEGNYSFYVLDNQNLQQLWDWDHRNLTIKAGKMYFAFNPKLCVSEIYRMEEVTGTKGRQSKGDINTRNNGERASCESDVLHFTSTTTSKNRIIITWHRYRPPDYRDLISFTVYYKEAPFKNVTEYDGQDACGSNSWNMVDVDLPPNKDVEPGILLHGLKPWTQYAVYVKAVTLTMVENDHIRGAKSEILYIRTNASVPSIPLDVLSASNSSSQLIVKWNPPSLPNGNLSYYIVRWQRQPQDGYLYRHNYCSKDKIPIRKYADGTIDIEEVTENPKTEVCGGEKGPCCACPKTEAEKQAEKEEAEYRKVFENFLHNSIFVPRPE
Sequence of Insulin-like growth factor 1 receptor (Homo sapiens) (P08069 741-1367 limits assumed): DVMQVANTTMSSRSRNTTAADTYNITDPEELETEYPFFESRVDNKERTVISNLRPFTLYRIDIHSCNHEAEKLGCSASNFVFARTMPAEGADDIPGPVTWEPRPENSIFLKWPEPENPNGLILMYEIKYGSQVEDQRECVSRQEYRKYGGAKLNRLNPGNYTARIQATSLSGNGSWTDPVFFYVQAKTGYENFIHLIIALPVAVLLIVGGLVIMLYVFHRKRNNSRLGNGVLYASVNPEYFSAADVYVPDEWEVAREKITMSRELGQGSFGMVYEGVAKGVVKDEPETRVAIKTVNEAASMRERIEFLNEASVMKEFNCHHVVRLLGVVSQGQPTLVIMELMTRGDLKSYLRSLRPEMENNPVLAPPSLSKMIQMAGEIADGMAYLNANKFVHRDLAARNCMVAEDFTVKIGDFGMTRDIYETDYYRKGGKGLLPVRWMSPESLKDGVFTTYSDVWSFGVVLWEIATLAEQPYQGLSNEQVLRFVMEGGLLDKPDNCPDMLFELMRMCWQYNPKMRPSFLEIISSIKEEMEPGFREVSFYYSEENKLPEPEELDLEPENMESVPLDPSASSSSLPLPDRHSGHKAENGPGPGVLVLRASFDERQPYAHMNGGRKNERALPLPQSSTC

- IC50 (NCI-H2228): 130 nM
- Vdss [1]: 3.3 L/kg
- half-life [3]: 25.2 min
- Cmax [8]: 1480 ng/mL
- inhibition [10]: Active
Compound: CC(C)S(=O)(=O)c1ccccc1Nc1nc(Nc2ccc(NC(=O)CCCCCCC(=O)NO)cc2)ncc1Cl
- Activity (SH-SY5Y [2]): 2.8%
- Activity (MDA-MB-231 [4]): 5.5%
- inhibition (SH-SY5Y [5]): Active
- Activity (MDA-MB-231 [6]): 8.79%
- Ratio IC50 [7]: 3
- Activity (MDA-MB-231 [9]): 32.53%
- Activity (SH-SY5Y [11]): 75.94%
- Activity (MDA-MB-231 [12]): 14.37%
